pIC50: −log10 of the molar value.
test system: Gerbillinae; test: CNS penetration was assessed by compounds ability in gerbils to block the foot-tapping induced by central infusion of the NK1-selective agonist GR-73632 when administered intravenously; type: functional; conditions: iv, read-out: ID50 (the source's name)

Structure (SMILES) | ED50 [mg/kg]
CN(C)Cc1nn[nH]c1CN1CCOC2(CCC(c3ccccc3OC(F)(F)F)CO2)C1c1ccc(F)cc1 (stereo not drawn) | 0.6
CN(C)Cc1nn[nH]c1CN1CCOC2(CCC(c3ccccc3C(F)(F)F)CO2)C1c1ccc(F)cc1 (stereo not drawn) | 1.1

molecular target: T1, Substance-P receptor (Homo sapiens, UniProt P25103); test: Displacement of [125I]-labeled substance P from human Tachykinin receptor 1 expressed in CHO cells; type: cell-based; conditions: not given
T1 sequence (P25103 whole entry): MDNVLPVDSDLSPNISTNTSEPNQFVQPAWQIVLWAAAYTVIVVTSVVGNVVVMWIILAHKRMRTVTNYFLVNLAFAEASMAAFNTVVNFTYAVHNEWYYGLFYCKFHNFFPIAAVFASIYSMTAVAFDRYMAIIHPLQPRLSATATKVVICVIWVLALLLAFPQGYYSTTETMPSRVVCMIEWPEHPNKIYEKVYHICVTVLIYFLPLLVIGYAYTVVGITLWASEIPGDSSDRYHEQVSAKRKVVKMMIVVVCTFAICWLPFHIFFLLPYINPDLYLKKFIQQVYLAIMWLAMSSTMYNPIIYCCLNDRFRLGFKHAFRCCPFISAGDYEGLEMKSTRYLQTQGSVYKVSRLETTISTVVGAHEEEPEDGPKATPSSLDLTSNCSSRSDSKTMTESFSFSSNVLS

pIC50 | Structure (SMILES)
9.25 | COc1ccccc1[C@H]1COCC2(C1)OCCN(Cc1n[nH]c(O)n1)[C@H]2c1ccc(F)cc1 (stereo partly drawn)
7.72 | O=c1[nH]nc(CN2CCOC3(CCC(c4ccccc4)CO3)C2c2ccccc2)[nH]1 (stereo not drawn)
7.80 | COc1ccc(OC)c([C@H]2COCC3(C2)OCCN[C@H]3c2ccc(F)cc2)c1 (stereo partly drawn)
6.77 | c1ccc(C2CCC3(OCCNC3c3ccccc3)OC2)cc1 (stereo not drawn)
6.29 | Fc1ccc(C2NCCOC23CCC(c2cccc(C(F)(F)F)c2)CO3)cc1 (stereo not drawn)
7.62 | Fc1ccc([C@@H]2NCCOC23COC[C@H](c2ccccc2C(F)(F)F)C3)cc1 (stereo partly drawn)
8.55 | COc1ccc(C(C)C)cc1[C@H]1COCC2(C1)OCCN[C@H]2c1ccc(F)cc1 (stereo partly drawn)
7.00 | Fc1ccc([C@@H]2NCCOC23COC[C@H](c2ccccc2)C3)cc1 (stereo partly drawn)
8.85 | CN(C)Cc1nn[nH]c1CN1CCOC2(CCC(c3ccccc3OC(F)(F)F)CO2)C1c1ccc(F)cc1 (stereo not drawn)
6.74 | COc1cccc([C@H]2COCC3(C2)OCCN[C@H]3c2ccc(F)cc2)c1 (stereo partly drawn)
7.52 | Fc1ccc([C@@H]2NCCOC23COC[C@H](c2cccc(C(F)(F)F)c2)C3)cc1 (stereo partly drawn)
7.89 | COc1ccccc1[C@H]1COCC2(C1)OCCN[C@H]2c1ccc(F)cc1 (stereo partly drawn)
10.00 | COc1ccc(-n2nnnc2C(F)(F)F)cc1[C@H]1COCC2(C1)OCCN(Cc1n[nH]c(O)n1)[C@H]2c1ccc(F)cc1 (stereo partly drawn)
8.00 | COc1ccc(F)cc1[C@H]1COCC2(C1)OCCN[C@H]2c1ccc(F)cc1 (stereo partly drawn)
8.96 | CN(C)Cc1nn[nH]c1CN1CCOC2(CCC(c3ccccc3C(F)(F)F)CO2)C1c1ccc(F)cc1 (stereo not drawn)

molecular target: T1, Substance-P receptor; test: Percent displacement of [125I]-labeled substance P from the cloned human Tachykinin receptor 1 expressed in CHO cells at 1 uM; type: cell-based; conditions: not given

Affinity [%] | Structure (SMILES)
44 | Fc1ccc([C@@H]2NCCO[C@@]23CC[C@H](c2ccccc2C(F)(F)F)CO3)cc1
47 | Fc1ccc([C@@H]2NCCO[C@]23CC[C@@H](c2ccccc2C(F)(F)F)CO3)cc1

molecular target: T1, Substance-P receptor; test: Displacement of [125I]-substance P from human Tachykinin receptor 1; conditions: not given

pIC50 | Structure (SMILES)
7.55 | Fc1ccc([C@@H]2NCCO[C@@]23CC[C@@H](c2ccccc2C(F)(F)F)CO3)cc1
6.40 | Fc1ccc([C@@H]2NCCO[C@]23CC[C@H](c2ccccc2C(F)(F)F)CO3)cc1

molecular target: T1, Substance-P receptor; test: Percent displacement of [125I]-labeled substance P from the cloned human Tachykinin receptor 1 expressed in CHO cells at a concentration of 1 uM of the compound; type: cell-based; conditions: not given

Affinity [%] | Structure (SMILES)
27 | COc1ccc([C@H]2COCC3(C2)OCCN[C@H]3c2ccc(F)cc2)cc1 (stereo partly drawn)
55 | Fc1ccc(C2NCCOC23CCC(c2ccc(C(F)(F)F)cc2)CO3)cc1 (stereo not drawn)

From ChEMBL document CHEMBL1135315, “Spirocyclic NK(1) antagonists I: [4.5] and [5.5]-spiroketals” (Bioorg Med Chem Lett, 2002)
